Laboratory results published in patent US11242511B2, “Cytoplasmic protein complex comprising a kinase substrate sensor, cells comprising the complex, and associated detection methods” (VIB VZW, priority 2011, dated 2022).

Legend:
[1] = biological target: T1, EFHA1 (which binds to Tyk2(C) itself) (Homo sapiens, UniProt Q8IYU8); test: Tyk2(C) kinase substrate sensor luciferase reporter assay, EFHA1 control interaction; format: cell-based; conditions: HEK293-T cells, pMet7-HA-Tyk2(C)-p53(N)+pMG1-EFHA1; 0-3333 nM; FIG. 4
T1 construct: expressed in transfected cells; host or cells: HEK293-T
T1 sequence (Q8IYU8 1-434): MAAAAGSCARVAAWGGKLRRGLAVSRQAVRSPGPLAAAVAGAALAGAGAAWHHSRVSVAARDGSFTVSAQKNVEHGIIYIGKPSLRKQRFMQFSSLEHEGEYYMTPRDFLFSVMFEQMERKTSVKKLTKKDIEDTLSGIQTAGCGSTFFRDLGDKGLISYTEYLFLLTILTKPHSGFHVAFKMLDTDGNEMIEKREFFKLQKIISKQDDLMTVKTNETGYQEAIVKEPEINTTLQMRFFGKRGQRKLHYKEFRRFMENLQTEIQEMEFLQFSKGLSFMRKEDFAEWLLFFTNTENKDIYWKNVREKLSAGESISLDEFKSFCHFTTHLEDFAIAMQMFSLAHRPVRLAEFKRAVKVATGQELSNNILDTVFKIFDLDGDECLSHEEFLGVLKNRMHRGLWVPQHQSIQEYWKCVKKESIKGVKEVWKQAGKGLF

[2] = system: Tyk2(R1027A); test: Imidazole-inducible version of the assay, Tyk2(R1027A)-RTp66 fusion, luciferase reporter; format: cell-based, human; conditions: HEK293-T cells, 0.5-50 mM imidazole
Description: (§1) Transfections were carried out using a standard calcium phosphate method. HEK293-T cells were seeded in black tissue-culture treated 96-well plates at 10,000 cells/well in 100 μl culture medium (DMEM supplemented with 10% FCS). Twenty-four hours later, plasmid DNA mixes were prepared that contained plasmids encoding fusion proteins with the first and second interacting proteins and reporter plasmids. The DNA was supplemented with 10 μl 2.5M CaCl2) and double distilled water to a final volume of 100 μl. This mixture was added dropwise to 100 μl 2×HeBS buffer (280 mM NaCl, 1.5 mM Na2HPO4, 50 mM Hepes; pH 7.05) while vigorously vortexing. After incubation at room temperature for 15 minutes to allow DNA precipitates to form, the solution was added to the cells at […] Cells were incubated at 37° C., 8% CO2. Forty-eight hours after transfection, luciferase activity was measured using the Luciferase Assay System kit (Promega) on a TopCount luminometer (Perkin-Elmer). Each transfection was done in triplicate and the average of the luciferase activity readings was used in the calculations.
(§2) A Nutlin-3 (Sigma) stock solution of 20 mM in DMSO was diluted in culture medium and added to the cells 24 hours after transfection. Imidazole (Sigma) diluted in culture medium was added to the cells 24 hours after transfection. […]

[3] = system: Tyk2(C); test: Imidazole treatment of the constitutive Tyk2(C)-RTp66 fusion assay, luciferase reporter; format: cell-based, human; conditions: HEK293-T cells, pMet7-HA-Tyk2(C)-RTp66; 0.5-50 mM imidazole
Description: as §1, §2

Row | signal corresponding to the interaction with EFHA1 [1] | SMILES | background signal, Tyk2 fusion construct with unfused gp130 fragment (pMG1) ([2]; Tyk2 fusion construct + pMG1) | maximal imidazole-dependent induction of the signal (interaction between HIV RTp66 and RTp51) compared to untreated cells ([2]; pMet7-HA-Tyk2(R1027A)-RTp66+pMG2-RTp51, added 24 hours after transfection) | imidazole regulation of the signal in cells transfected with the Tyk2(C) fusion [3]
1 | unaffected | COc1ccc(C2=N[C@@H](c3ccc(Cl)cc3)[C@@H](c3ccc(Cl)cc3)N2C(=O)N2CCNC(=O)C2)c(OC(C)C)c1 [Nutlin-3] | – | – | –
2 | – | c1c[nH]cn1 [imidazole] | unaffected | 36 fold | did not exhibit any imidazole regulation
